We go through two compounds from patent publication US20210401867A1, “PHOTOSENSITIZERS AND METHOD OF TREATING CANCER USING THE SAME” (Cheng-Wen Wu, priority 2018, published 2021).

What all share (assay type): cell-based, human
The test system of data set [1] is FaDu cells. As to the kind of experiment: in vitro cell viability of FaDu cells. As to conditions: for synergy of combination with RS2000 versus RS2000 alone: conventional X-ray RS2000, FaDu cells.
The test system of data set [2] is FaDu cells. As to the kind of experiment: colony forming assay of FaDu cells. Here is the method: (§1) In the following examples, FaDu cells are used in cell viability tests and colony forming assays. FaDu cells (ATCC HTB-43) is a human head-and-neck cell line with squamous phenotype. FaDu cells used in the following examples are cultured in DMEM medium supplemented with 10% fetal bovine serum (FBS) and 1% penicillin/streptomycin, in a humidified incubator maintained at 37° C. and 5% CO2.
Referring to FIGS. 9A-C, an in vitro cell viability chart of FaDu cells when treated with BrdU alone, NR alone, and BrdU and NR, is provided in accordance with an exemplary embodiment of the present disclosure. NR treatments in FIGS. 9A, 9B, and 9C are similar with the experiment procedures for FIG. 6. In samples where FaDu cells are treated with BrdU and NR, FaDu cells are incubated with BrdU for 24 hours before irradiated with NR. Referring to FIG. 9B, a colony forming assay result of FaDu cells after the treatments described in […], is provided in accordance with an exemplary embodiment of the present disclosure. The colony forming assay in FIG. 9B are proceeded as following: FaDu cells treated by different regimens are grouped and seeded in 6-well-plates with 1000 cells in each of the well and cultured for 14 days; the culture medium was replaced every 3 to 4 days; in the end of the experiment, the cells are washed twice with PBS and fixed with 4% paraformaldehyde for 15 minutes and stained with 0.1% crystal violet. Referring to FIG. 9C, a quantitative result of the colony forming assay in FIG. 9B is provided in accordance with an exemplary embodiment of the present disclosure. In FIG. 9C, the results of the colony forming assay are quantified by microscopic examination by stereomicroscope.

Data set [3] relates to FaDu cells. Description: in vitro cell viability of FaDu cells. Here is the method:
as §1
Referring to FIG. 4, an in vitro cell viability chart of FaDu cells when treated with BrdU is provided in accordance with an exemplary embodiment of the present disclosure. FaDu cells are treated with different dosages of BrdU for 24 hours and then FaDu cells are analyzed daily for cell viability. FaDu cells are derived from pharynx squamous cell carcinoma of human, and are resistant to radiation. 3×10^5 FaDu cells are seeded in 6-cm-plates. After 24 hours, different dosages of BrdU are added into the culture medium and incubated with the FaDu cells for another 24 hours.
Referring to FIG. 5, an in vitro cell viability chart of FaDu cells when treated with IdU is provided in accordance with an exemplary embodiment of the present disclosure. FaDu cells are treated with different dosages of IdU for 24 hours and then FaDu cells are analyzed for cell viability. FaDu cells are seeded in plate and treated with IdU by similar experiment procedures with FIG. 4.
Referring to FIG. 6, an in vitro viability chart of FaDu cells when irradiated by NR is provided in accordance with an exemplary embodiment of the present disclosure. FaDu cells are treated with different radiation doses of NanoRay radiation (NR). FaDu cells are trypsinized and collected by centrifugation. The centrifuged FaDu cells are then re-suspended in PBS in a 1.5-ml tube with 5×10^4 cells in 20 μL. The tube containing centrifuged FaDu cells are then subjected to different radiation doses of NR. […] From FIGS. 4, 5 and 6, it is concluded that an optimized dosage for BrdU and IdU for in vivo experiments would be 10 μM, and the optimized radiation dose for NR is within 4 Gy.

The test system of data set [4] is FaDu cells. As to the kind of experiment: flow cytometry analysis of BrdU/IdU DNA incorporation in FaDu cells. The conditions noted are these: 24 hours. The procedure:
Referring to FIG. 7A, a flow cytometry analysis of FaDu cells without BrdU treatment is provided in accordance with an exemplary embodiment of the present disclosure. FaDu cells are analyzed by flow cytometry using BrdU Flow Kits (BD Pharmingen), in absence of BrdU. FaDu cells are trypsinized, washed, fixed, permeablized, blocked, and then treated with DNase I (5 U/10^6 cells/100 μL) for 1 hour at 37° C. FaDu cells are then hybridized with anti-BrdU antibodies for 1 hour at room temperature. After several washes, FaDu cells are analyzed for fluorescent signals with LSR II Analytic Flow Cytometer (BD Biosciences). […] Referring to FIGS. 7B-D, flow cytometry analyses of FaDu cells when treated with BrdU are provided in accordance with an exemplary embodiment of the present disclosure. In FIGS. 7B-D, FaDu cells are analyzed by flow cytometry with the same experiment procedures for FIG. 7A. FaDu cells in FIGS. 7B, 7C, and 7D are respectively treated with 0.5 μM BrdU, 1 μM BrdU, and 10 μM BrdU for 24 hours. […] The DNA incorporation efficiency of BrdU is 1 μM to more than 90% of FaDu cells, therefore 1 μM would be used in the subsequent experiment as an optimized dosage of BrdU. Referring to FIG. 8A, a flow cytometry analysis of FaDu cells without IdU treatment is provided in accordance with an exemplary embodiment of the present disclosure. FaDu cells are analyzed by flow cytometry using BrdU Flow Kits (BD Pharmingen), in absence of IdU. FaDu cells are treated with similar experiment procedures as in FIG. 7A, but anti-BrdU antibodies are replaced with anti-IdU antibodies. For the detection of IdU-incorporated cells, FaDu cells being treated by anti-IdU antibodies are then hybridized with a secondary antibody conjugated by proper fluorescent dye for 1 hour at room temperature. […] Referring to FIGS. 8B-D, flow cytometry analyses of FaDu cells when treated with IdU are provided in accordance with an exemplary embodiment of the present disclosure. FaDu cells are analyzed by flow cytometry with similar experiment procedures as in 7A. […] The DNA incorporation efficiency of IdU is 10 μM to more than 90% of FaDu cells, therefore 10 μM would be used in the subsequent experiment as an optimized dosage of IdU.
(In general: In flow cytometry, cells or beads pass a laser one at a time.)

[5] abbreviates: 10 μM IdU combined with 1 Gy of 33 keV NR.

Take `O=c1[nH]c(=O)n([C@H]2C[C@H](O)[C@@H](CO)O2)cc1I` [IdU, iododeoxyuridine]: in data set [1], the “synergy of combination with RS2000 versus RS2000 alone” value is on record as “does not have synergistic effects”. The “colony forming inhibition versus IdU or NR alone” value in data set [2] (setting [5]) is given as “higher”. For the same compound, the “cytotoxicity of the combination with NR” value in data set [3] is on record as “strong synergistic cytotoxicity”. Further, the “cell viability versus IdU or NR alone” value in data set [3] (setting [5]) is “lower”. For the same compound, the FaDu cells labeled result in data set [4] (IdU 0.5 μM as printed (FIG. 8B)) is listed as “about 84%”; in data set [4] (more than 10 μM of IdU), “more than 90%”.
For the compound `O=c1[nH]c(=O)n([C@H]2C[C@H](O)[C@@H](CO)O2)cc1Br` [BrdU, bromodeoxyuridine], the cell viability entry in data set [1] (1 μM BrdU and 1Gy of RS2000 (conventional X-ray)) is on record as “lower cell viability”. The “synergy of combination with RS2000 versus RS2000 alone” value in data set [1] is given as “does not have synergistic effects”. Moreover, the colony forming inhibition in data set [2] (1 μM BrdU combined with 1 Gy of 14 keV NR) was found to be 57.5%. Moreover, the “cytotoxicity of the combination with NR” value in data set [3] was “strong synergistic cytotoxicity”. In addition, in data set [3] (FaDu cells, 1 μM BrdU), the toxicity entry is “almost no toxicity”. In addition, the results for the FaDu cells labeled entry in data set [4] (0.5 μM BrdU) and in data set [4] (more than 1 μM of BrdU) were “about 83%” and “more than 90%”, respectively.
